Reference: PubChem BioAssay (NCI)
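1) Cells in 96-well plates. 2) Compound, 48 h, 5 concentrations. 3) Linear interpolation between surrounding doses. 4) Unreached endpoint = highest concentration. The concentration for 50% growth inhibition is given as GI50. The concentration for full growth arrest is given as TGI.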

Columns and labels:
Test in all cases: growth of human tumour cells (NCI), 48 h
EKVX NSCLC = tested on: EKVX NSCLC
LOX IMVI melanoma = tested on: LOX IMVI melanoma
HT29 colon = tested on: HT29 colon
MCF7 breast = tested on: MCF7 breast
HCC-2998 colon = tested on: HCC-2998 colon
DMS 114 small cell lung = tested on: DMS 114 small cell lung
SK-OV-3 ovarian = tested on: SK-OV-3 ovarian
IGROV1 ovarian = tested on: IGROV1 ovarian
ACHN renal = tested on: ACHN renal
OVCAR-4 ovarian = tested on: OVCAR-4 ovarian
SW-620 colon = tested on: SW-620 colon
DU-145 prostate = tested on: DU-145 prostate
UO-31 renal = tested on: UO-31 renal
SNB-19 CNS = tested on: SNB-19 CNS
HOP-62 NSCLC = tested on: HOP-62 NSCLC
UACC-62 melanoma = tested on: UACC-62 melanoma
NCI-H460 lung = tested on: NCI-H460 lung
DLD-1 colon = tested on: DLD-1 colon
SK-MEL-5 melanoma = tested on: SK-MEL-5 melanoma
OVCAR-3 ovarian = tested on: OVCAR-3 ovarian
DMS 273 small cell lung = tested on: DMS 273 small cell lung
TK-10 renal = tested on: TK-10 renal
MDA-MB-231 breast = tested on: MDA-MB-231 breast
K-562 leukemia = tested on: K-562 leukemia
SF-268 CNS = tested on: SF-268 CNS
SN12C renal = tested on: SN12C renal
BT-549 breast = tested on: BT-549 breast
UACC-257 melanoma = tested on: UACC-257 melanoma
A549 NSCLC = tested on: A549 NSCLC
COLO 205 colon = tested on: COLO 205 colon
SNB-75 CNS = tested on: SNB-75 CNS
786-0 renal = tested on: 786-0 renal
M14 melanoma = tested on: M14 melanoma
HCT-116 colon = tested on: HCT-116 colon
CAKI-1 renal = tested on: CAKI-1 renal
NCI-H23 lung = tested on: NCI-H23 lung
MDA-MB-435 = tested on: MDA-MB-435
HOP-18 NSCLC = tested on: HOP-18 NSCLC
U251 CNS = tested on: U251 CNS
NCI/ADR-RES ovarian = tested on: NCI/ADR-RES ovarian
RXF 393 renal = tested on: RXF 393 renal
OVCAR-5 ovarian = tested on: OVCAR-5 ovarian
HL-60(TB) leukemia = tested on: HL-60(TB) leukemia
NCI-H522 lung = tested on: NCI-H522 lung
SF-295 CNS = tested on: SF-295 CNS
MALME-3M melanoma = tested on: MALME-3M melanoma
HCT-15 colon = tested on: HCT-15 colon
KM12 colon = tested on: KM12 colon
HOP-92 NSCLC = tested on: HOP-92 NSCLC
CCRF-CEM leukemia = tested on: CCRF-CEM leukemia
SK-MEL-2 melanoma = tested on: SK-MEL-2 melanoma
A498 renal = tested on: A498 renal
NCI-H226 lung = tested on: NCI-H226 lung
SK-MEL-28 melanoma = tested on: SK-MEL-28 melanoma
RPMI-8226 leukemia = tested on: RPMI-8226 leukemia
OVCAR-8 ovarian = tested on: OVCAR-8 ovarian
HS 578T breast = tested on: HS 578T breast
SF-539 CNS = tested on: SF-539 CNS
KM20L2 colon = tested on: KM20L2 colon

Cl.[O-]c1cccc2cccnc12.[O-]c1cccc2cccnc12.[O-]c1cccc2cccnc12.[O-]c1cccc2cccnc12.[Ti+4]
GI50 (EKVX NSCLC): 0.916 µM
TGI (EKVX NSCLC): > 27.4 µM
GI50 (LOX IMVI melanoma): 1.69 µM
TGI (LOX IMVI melanoma): > 88.9 µM
GI50 (HT29 colon): 0.914 µM
TGI (HT29 colon): 6.86 µM
GI50 (MCF7 breast): 0.955 µM
TGI (MCF7 breast): > 100 µM
GI50 (HCC-2998 colon): 2.1 µM
TGI (HCC-2998 colon): 4.5 µM
TGI (DMS 114 small cell lung): 0.365 µM
GI50 (SK-OV-3 ovarian): 3.94 µM
TGI (SK-OV-3 ovarian): > 73.8 µM
TGI (IGROV1 ovarian): 2.92 µM
GI50 (ACHN renal): 2.62 µM
TGI (ACHN renal): > 100 µM
GI50 (OVCAR-4 ovarian): 0.959 µM
GI50 (SW-620 colon): 0.393 µM
TGI (SW-620 colon): > 100 µM
GI50 (DU-145 prostate): 10.5 µM
TGI (DU-145 prostate): > 100 µM
GI50 (UO-31 renal): 5.59 µM
TGI (UO-31 renal): > 100 µM
GI50 (SNB-19 CNS): 70.8 µM
TGI (SNB-19 CNS): > 100 µM
GI50 (HOP-62 NSCLC): 4.7 µM
TGI (HOP-62 NSCLC): 59.6 µM
GI50 (UACC-62 melanoma): 1.84 µM
TGI (UACC-62 melanoma): 14.6 µM
GI50 (NCI-H460 lung): 1.28 µM
TGI (NCI-H460 lung): 10.2 µM
TGI (DLD-1 colon): 1.6 µM
TGI (SK-MEL-5 melanoma): 2.46 µM
GI50 (OVCAR-3 ovarian): 0.121 µM
TGI (OVCAR-3 ovarian): 0.621 µM
TGI (DMS 273 small cell lung): 1.69 µM
GI50 (TK-10 renal): 53.7 µM
TGI (TK-10 renal): > 100 µM
GI50 (MDA-MB-231 breast): 1.26 µM
TGI (MDA-MB-231 breast): > 100 µM
GI50 (K-562 leukemia): 0.303 µM
GI50 (SF-268 CNS): 0.594 µM
TGI (SF-268 CNS): > 100 µM
GI50 (SN12C renal): 2.74 µM
TGI (SN12C renal): > 91.1 µM
TGI (BT-549 breast): > 100 µM
GI50 (UACC-257 melanoma): 0.712 µM
TGI (UACC-257 melanoma): > 35.1 µM
GI50 (A549 NSCLC): 0.89 µM
TGI (A549 NSCLC): 12 µM
GI50 (COLO 205 colon): 1.08 µM
TGI (COLO 205 colon): 3.55 µM
GI50 (SNB-75 CNS): 9.55 µM
TGI (SNB-75 CNS): > 100 µM
GI50 (786-0 renal): 0.567 µM
TGI (786-0 renal): 4.41 µM
GI50 (M14 melanoma): 0.994 µM
TGI (M14 melanoma): 17.8 µM
GI50 (HCT-116 colon): 0.355 µM
GI50 (CAKI-1 renal): 1.61 µM
TGI (CAKI-1 renal): > 100 µM
GI50 (NCI-H23 lung): 1.4 µM
GI50 (MDA-MB-435): 11.6 µM
TGI (MDA-MB-435): > 100 µM
TGI (HOP-18 NSCLC): > 100 µM
GI50 (U251 CNS): 2.53 µM
TGI (U251 CNS): 30.5 µM
GI50 (NCI/ADR-RES ovarian): 0.243 µM
TGI (NCI/ADR-RES ovarian): 11.5 µM
GI50 (RXF 393 renal): 0.319 µM
TGI (RXF 393 renal): 2.13 µM
GI50 (OVCAR-5 ovarian): 2.71 µM
TGI (OVCAR-5 ovarian): 19.5 µM
GI50 (HL-60(TB) leukemia): 0.226 µM
GI50 (NCI-H522 lung): 0.12 µM
TGI (NCI-H522 lung): 0.256 µM
GI50 (SF-295 CNS): 3.09 µM
TGI (SF-295 CNS): > 100 µM
GI50 (MALME-3M melanoma): 1.91 µM
TGI (MALME-3M melanoma): > 40.2 µM
GI50 (HCT-15 colon): 0.354 µM
TGI (HCT-15 colon): 7.06 µM
GI50 (KM12 colon): 2.28 µM
TGI (KM12 colon): 8.04 µM
GI50 (HOP-92 NSCLC): 15.7 µM
TGI (HOP-92 NSCLC): > 71.7 µM
GI50 (CCRF-CEM leukemia): 0.291 µM
GI50 (SK-MEL-2 melanoma): 3.32 µM
TGI (SK-MEL-2 melanoma): 26.1 µM
GI50 (A498 renal): 8.24 µM
TGI (A498 renal): 21.7 µM
GI50 (NCI-H226 lung): 7.9 µM
TGI (NCI-H226 lung): > 89.9 µM
GI50 (SK-MEL-28 melanoma): 4.33 µM
TGI (SK-MEL-28 melanoma): > 35.4 µM
TGI (RPMI-8226 leukemia): 2.67 µM
GI50 (OVCAR-8 ovarian): 0.779 µM
TGI (OVCAR-8 ovarian): > 31.5 µM
GI50 (HS 578T breast): > 100 µM
TGI (HS 578T breast): > 100 µM
GI50 (SF-539 CNS): 2.06 µM
TGI (SF-539 CNS): 14.4 µM
TGI (KM20L2 colon): > 76 µM
